{"source": "patent US20090155339A1", "about": "“Biocompatible Antimicrobial Filament Material” (AESCULAP AG & CO. KG, priority 2005, published 2009)", "test_system": "L929 cells (DSM ACC2, mouse fibroblasts)", "assay": "Cytotoxicity of PHMB-HCl coated thread extracts, growth inhibition (BCA Assay method)", "assay_type": "cell-based", "settings": "positive control 7.5% v/v DMSO, 72 h", "experimental": "The test was carried out in accordance with the standard EN ISO/IEC 17025. The thread pieces were extracted in the absence of light with the DMEM-FBS cell culture medium at 37±2° C. for 7 days. The absorbed DMEM-FBS was made up to a volume such that the surface/volume ratio was 9 cm^2/ml. As a negative control, DMEM-FBS was incubated at 37±2° C. for 7 days without test material. 7.5% v/v DMSO was used as positive control. Extracts and negative controls were diluted in five steps with DMEM-FBS solution (dilution ratio 2:3). 100 μl of the dilute solutions of the extracts and of the negative controls and also 100 μl of the positive controls were added in triplicate to wells in a […]. Thereafter, 50 μl of a freshly prepared cell suspension (7.5×10^4 cells/ml) were added to all wells except those used for background determination. The final concentrations of the extracts were accordingly 66.7%, 44.5%, 29.6%, 19.8%, 13.2% and 8.8% v/v. The plates were then incubated at 37±2° C. in humidified air (5% CO2/95% air) for 72±2 hours. Thereafter, the protein content of the samples was determined calorimetrically at a wavelength of 550 nm (BCA Assay method). The test organisms used were L929 cells (DSM ACC2, mouse fibroblasts, clone of the L strand). […] FBS and P/S from Biochrom (Berlin) and BCA protein quantification kit from Interchim (France)."}
{"smiles": "C[S+](C)[O-]", "note": "[Positive control, DMSO]", "values": [{"measurement": "Growth inhibition", "value": 81, "unit": "%"}]}
